Data: patent publication US20230414839A1, “COATED MEDICAL PRODUCT” (HEMOTEQ AG, priority 2020, published 2023)
Where two headings read alike, the source gives them in different places.

Tests used:
[1] = cited from earlier work
[2] = preparation and stability of crystal suspensions of microcrystalline rapamycin / everolimus in solutions of different tri-O-acylglycerols (Examples 2, 3); details: ethyl acetate/heptane solution; standing and temperature elevation
From the text: In the first step, solutions of tri-O-acylglycerols were first prepared in a solvent mixture. Subsequently, the solutions were combined with microcrystals of rapamycin and everolimus to investigate which tri-O-acylglycerols could be used to obtain stable crystal suspensions. The composition of the solvents and solvent mixture varied depending on the active agent used. The solutions and solvent mixtures prepared in the example apply to rapamycin (SIR) and everolimus (EVR). For the preparation of the solutions, an ethyl acetate/heptane solvent mixture was used here as an example.
To prepare the solutions, 770 mg of the respective tri-O-acylglycerol and optionally 150 mg BHT were dissolved in 14 g ethyl acetate (15.6 mL). Then, 57.4 g of n-heptane (84.4 mL) was added. Subsequently, homogenization and filtration were performed. The total volume of the solvent mixture is 100 mL.
To a precisely weighed amount of dry microcrystals of the previously prepared limus active agent, a defined amount of the solutions containing tri-O-acylglycerol and optionally antioxidant is carefully added. It was investigated whether the microcrystals of the limus active agent are not soluble in the solutions and whether suspensions are formed.
To check whether crystal suspension can be prepared, to each 200 mg of rapamycin in the form of microcrystals or 200 mg of everolimus in the form of microcrystals were carefully added 10 mL of one of the solutions 1a) to 1t) at room temperature. Three mixtures of 10 mL of solution for each solution were prepared. After combining, it was tested whether the microcrystals of limus active agents dissolved directly in the solutions. For solutions where there was no immediate dissolution of the microcrystals of the limus active agents, the suspensions of the solutions without antioxidant were allowed to stand for a period of 100 h and tested again to see if the microcrystals of the limus active agents dissolved.
Three mixtures of 10 mL of solution for each solution were prepared. After combining, it was tested whether the microcrystals of limus active agents dissolved directly in these solutions. For solutions where there was no immediate dissolution of the microcrystals of the limus active agents, the suspensions of the solutions without antioxidant were allowed to stand for a period of 100 hours and tested again to see if the microcrystals of the limus active agents dissolved.

[3] = crystal suspensions of microcrystalline everolimus in different solvent mixtures (Example 6); type: physicochemical; parameters: key: +++: good; +/−: average; −−−: poor; details: 770 mg trioctanoylglycerol per 100 mL
Experimental: To prepare the solutions, 770 mg of trioctanoylglycerol was dissolved in the polar solvent. Then the nonpolar solvent was added. It was then homogenized and filtered.
To test whether crystal suspensions could be prepared, 10 mL of each of the solutions was carefully added to 200 mg of everolimus in the form of microcrystals at room temperature. After combining, it was tested whether stable crystal suspensions were obtained.

[4] = cited from earlier work; remark: listed apart in the source
[5] = nonpolar organic solvents, rounded values (Table 4)
[6] = polar organic solvents, rounded values (Table 6)
[7] = non-solvents, rounded values (Table 2)
[8] = nonpolar organic solvents (Table 8)
[9] = polar organic solvents (Table 7)

CC(C)Cc1ccccc1 [2-Methyl-1-phenylpropane]
logKOW [1, 5]: 3.4

CCCCCCCCCC(=O)OCC(COC(=O)CCCCCCCCC)OC(=O)CCCCCCCCC [Tridecanoylglycerol, tridecanoylglycerol]
stability of the crystal suspension of microcrystalline everolimus and rapamycin with the tri-O-acylglycerol [2]: remained stable even after 100 h and under temperature elevation

CCCOC(C)=O [n-Propyl acetate]
logKOW [1, 6]: +1.4

OCC(O)CO [Glycerin]
logKOW [1, 6]: −1.8

CCCCCCCCC [Nonan]
logKOW [1, 7]: 5.7
logKOW [1, 8]: 5.65

CCCOCCC [Dipropyl ether]
logKOW [1, 6]: +2.0

CCCCC(C)C [2-Methylhexane]
logKOW [1, 7]: 3.7

Clc1ccccc1 [Chlorobenzene]
log KOW [1]: about 2.9
logKOW [1, 5]: 2.9

CO[C@H]1C[C@@H]2CC[C@@H](C)[C@@](O)(O2)C(=O)C(=O)N2CCCC[C@H]2C(=O)O[C@H]([C@H](C)C[C@@H]2CC[C@@H](OCCO)[C@H](OC)C2)CC(=O)[C@H](C)/C=C(\C)[C@@H](O)[C@@H](OC)C(=O)[C@H](C)C[C@H](C)/C=C/C=C/C=C/1C [Everolimus, 40-O-(2-hydroxyethyl)rapamycin]
Crystal suspension ([3]; Acetone/Cyclohexane 10:90 (v/v)): +++
Crystal suspension ([3]; Acetone/Cyclohexane 30:70 (v/v)): +/−
Crystal suspension ([3]; Acetone/Cyclohexane 40:60 (v/v)): +/−
Crystal suspension ([3]; Acetone/Cyclohexane 50:50 (v/v)): −−−
Crystal suspension ([3]; Acetone/Cyclohexane 60:40 (v/v)): −−−
Crystal suspension ([3]; Acetone/Heptane 10:90 (v/v)): +++
Crystal suspension ([3]; Acetone/Heptane 30:70 (v/v)): +/−
Crystal suspension ([3]; Acetone/Heptane 40:60 (v/v)): +/−
Crystal suspension ([3]; Acetone/Heptane 50:50 (v/v)): −−−
Crystal suspension ([3]; Acetone/Heptane 60:40 (v/v)): −−−
Crystal suspension ([3]; Acetone/Hexane 10:90 (v/v)): +++
Crystal suspension ([3]; Acetone/Hexane 30:70 (v/v)): +/−
Crystal suspension ([3]; Acetone/Hexane 40:60 (v/v)): +/−
Crystal suspension ([3]; Acetone/Hexane 50:50 (v/v)): −−−
Crystal suspension ([3]; Acetone/Hexane 60:40 (v/v)): −−−
Crystal suspension ([3]; Ethanol/Cyclohexane 10:90 (v/v)): +++
Crystal suspension ([3]; Ethanol/Cyclohexane 40:60 (v/v)): +/−
Crystal suspension ([3]; Ethanol/Cyclohexane 50:50 (v/v)): −−−
Crystal suspension ([3]; Ethanol/Cyclohexane 60:40 (v/v)): −−−
Crystal suspension ([3]; Ethanol/Heptane 10:90 (v/v)): +++
Crystal suspension ([3]; Ethanol/Heptane 40:60 (v/v)): +/−
Crystal suspension ([3]; Ethanol/Heptane 50:50 (v/v)): −−−
Crystal suspension ([3]; Ethanol/Heptane 60:40 (v/v)): −−−
Crystal suspension ([3]; Ethanol/Hexane 10:90 (v/v)): +++
Crystal suspension ([3]; Ethanol/Hexane 40:60 (v/v)): +/−
Crystal suspension ([3]; Ethanol/Hexane 50:50 (v/v)): −−−
Crystal suspension ([3]; Ethanol/Hexane 60:40 (v/v)): −−−
Crystal suspension ([3]; Ethyl acetate/Cyclohexane 10:90 (v/v)): +++
Crystal suspension ([3]; Ethyl acetate/Cyclohexane 30:70 (v/v)): +++
Crystal suspension ([3]; Ethyl acetate/Cyclohexane 40:60 (v/v)): +++
Crystal suspension ([3]; Ethyl acetate/Cyclohexane 50:50 (v/v)): +/−
Crystal suspension ([3]; Ethyl acetate/Cyclohexane 60:40 (v/v)): +/−
Crystal suspension ([3]; Ethyl acetate/Heptane 10:90 (v/v)): +++
Crystal suspension ([3]; Ethyl acetate/Heptane 30:70 (v/v)): +++
Crystal suspension ([3]; Ethyl acetate/Heptane 40:60 (v/v)): +++
Crystal suspension ([3]; Ethyl acetate/Heptane 50:50 (v/v)): +/−
Crystal suspension ([3]; Ethyl acetate/Heptane 60:40 (v/v)): +/−
Crystal suspension ([3]; Ethyl acetate/Hexane 10:90 (v/v)): +++
Crystal suspension ([3]; Ethyl acetate/Hexane 30:70 (v/v)): +++
Crystal suspension ([3]; Ethyl acetate/Hexane 40:60 (v/v)): +++
Crystal suspension ([3]; Ethyl acetate/Hexane 50:50 (v/v)): +/−
Crystal suspension ([3]; Ethyl acetate/Hexane 60:40 (v/v)): +/−
Crystal suspension ([3]; iso-propanol/Cyclohexane 10:90 (v/v)): +++
Crystal suspension ([3]; iso-propanol/Cyclohexane 30:70 (v/v)): +/−
Crystal suspension ([3]; iso-propanol/Cyclohexane 40:60 (v/v)): +/−
Crystal suspension ([3]; iso-propanol/Cyclohexane 50:50 (v/v)): −−−
Crystal suspension ([3]; iso-propanol/Cyclohexane 60:40 (v/v)): −−−
Crystal suspension ([3]; iso-propanol/Heptane 10:90 (v/v)): +++
Crystal suspension ([3]; iso-propanol/Heptane 30:70 (v/v)): +/−
Crystal suspension ([3]; iso-propanol/Heptane 40:60 (v/v)): +/−
Crystal suspension ([3]; iso-propanol/Heptane 50:50 (v/v)): −−−
Crystal suspension ([3]; iso-propanol/Heptane 60:40 (v/v)): −−−
Crystal suspension ([3]; iso-propanol/Hexane 10:90 (v/v)): +++
Crystal suspension ([3]; iso-propanol/Hexane 30:70 (v/v)): +/−
Crystal suspension ([3]; iso-propanol/Hexane 40:60 (v/v)): +/−
Crystal suspension ([3]; iso-propanol/Hexane 50:50 (v/v)): −−−
Crystal suspension ([3]; iso-propanol/Hexane 60:40 (v/v)): −−−

C1CCCCCCCC1 [Cyclononan]
logKOW [1, 7]: 5.1

COc1ccccc1 [Anisol]
logKOW [1, 5]: 2.1

CCCC(C)(C)C [2,2-Dimethylpentane]
logKOW [1, 7]: 3.8

CCC(C)(C)C [2,2-Dimethylbutane]
logKOW [1, 7]: 3.8

O [Water]
logKOW ([1]; polar organic solvents, rounded orientation values (Table 5)): approx. −1.4

CCC(=O)O [Propionic acid]
logKOW [1, 9]: 0.32

C1CCCC1 [Cyclopentane]
logKOW [1, 7]: 3.0
logKOW [1, 8]: 3.00

CC(C)c1ccccc1 [Cumol]
logKOW [1, 5]: 3.4

FC(F)(F)C(F)(F)C(F)(F)C(F)(F)C(F)(F)C(F)(F)F [Tetradecafluorohexane]
logKOW [1, 5]: 5.8

CCC(C)C(C)C (stereo not shown) [2,3-Dimethylpentane]
logKOW [1, 7]: 3.8

CCc1ccccc1 [Ethylbenzene]
logKOW [1, 5]: 3.2

C1CCOC1 [Tetrahydrofuran (THF), Tetrahydrofuran]
logKOW [1, 9]: 0.46
logKOW [1, 6]: +0.5

CN1CCCC1=O [N-methylpyrrolidone]
logKOW [1, 6]: −0.5

CC(C)Cc1ccccc1 [iso-butylbenzene]
logKOW [1, 5]: 4.1

C1COCCO1 [1,4-Dioxane]
log KOW [1]: about −0.4

CCCCCCCCCC [Decan]
logKOW [1, 7]: 6.3
logKOW [1, 8]: 6.25

CCCCCCCCCCC(=O)OCC(COC(=O)CCCCCCCCCC)OC(=O)CCCCCCCCCC [Triundecanoylglycerol, 1,3-bis(undecanoyloxy)propan-2-yl-undecanoate]
solubility in water [4]: practically insoluble in water
stability of the crystal suspension of microcrystalline everolimus and rapamycin with the tri-O-acylglycerol [2]: remained stable after 24-48 hours and under temperature elevation

CCCCCCC [Heptane]
logKOW [1, 7]: 4.5
logKOW [1, 8]: 4.50

CCC(C)C [Isopentane]
logKOW [1, 7]: 3.2

CCOc1ccccc1 [Ethoxybenzene]
logKOW [1, 5]: 2.5

CCCCCCCCC(=O)OCC(COC(=O)CCCCCCCC)OC(=O)CCCCCCCC [Trinonanoylglycerol, trinonanoylglycerol]
solubility in water [4]: practically insoluble in water
stability of the crystal suspension of microcrystalline everolimus and rapamycin with the tri-O-acylglycerol [2]: remained stable after 24-48 hours and under temperature elevation

CC(C)CC(C)(C)C [2,2,4-Trimethylpentane]
logKOW [1, 7]: 4.1

CC1CCCC1 [Methylcyclopentane]
logKOW [1, 7]: 3.4

CCCC(C)=O [Solution 2-Pentanone, 2-Pentanone]
logKOW [1, 9]: 0.84
logKOW [1, 6]: +0.9

CCC(C)c1ccccc1 (stereo not shown) [2-Phenylbutane]
logKOW [1, 5]: 3.4

C1CCCCCCCCC1 [Cyclodecane]
logKOW [1, 7]: 5.5

CC(C)(C)C1CCCCC1 [tert-butylcyclohexane]
logKOW [1, 7]: 4.0

COC(C)=O [Methyl acetate]
logKOW [1, 6]: +0.2

CCCCCCCC [Octane]
logKOW [1, 7]: 5.2
logKOW [1, 8]: 5.15

CCCC(C)C [2-Methylpentane]
logKOW [1, 7]: 3.6

C1CCCCCC1 [Cycloheptane]
logKOW [1, 7]: 4

Clc1ccccc1Cl [o-Dichlorobenzene]
logKOW [1, 5]: 3.4

CCOC(C)=O [Ethyl acetate]
logKOW [1, 9]: 0.73
logKOW [1, 6]: +0.7
